What was measured:
Assay type in all cases: in vivo
Monochoria vaginalis [1] = assay: Test Example 1: herbicidal effect test by soil treatment in paddy field; conditions: 120 g/10a, paddy soil treatment just after sowing, 14 days after treatment
Procedure, shortened: (§1)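 Emulsifiable-concentrate formulation, water-diluted, dosed onto flooded paddy pots at 120 g a.i./10 are directly after sowing. Readout: % suppression by dry weight relative to untreated, 14 d, duplicate plots.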

Echinochloa crus-galli [2] = assay: as above; conditions: 120 g/10a, paddy soil treatment just after sowing, 14 days after treatment
Procedure, shortened: as §1

Lindernia pyxidaria [3] = assay: as above; conditions: 120 g/10a, paddy soil treatment just after sowing, 14 days after treatment
Procedure, shortened: as §1

Scirpus juncoides [4] = assay: as above; conditions: 120 g/10a, paddy soil treatment just after sowing, 14 days after treatment
Procedure, shortened: as §1

Echinochloa crus-galli [5] = assay: Test Example 4: herbicidal effect test by foliage treatment in upland field; conditions: upland field foliage treatment 7 days after sowing; 120 g/10a; evaluated 14 days after treatment
Procedure, shortened: (§2)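 Application of 120 g active ingredient per 10 are, as a water-diluted emulsifiable concentrate sprayed 7 days after sowing into alluvial soil. Effect is expressed as percent dry-weight reduction versus untreated plots at day 14, duplicate plots.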

Amaranthus viridis [6] = assay: as above; conditions: upland field foliage treatment 7 days after sowing; 120 g/10a; evaluated 14 days after treatment
Procedure, shortened: as §2

Chenopodium album [7] = assay: as above; conditions: upland field foliage treatment 7 days after sowing; 120 g/10a; evaluated 14 days after treatment
Procedure, shortened: as §2

crabgrass [8] = assay: as above; conditions: upland field foliage treatment 7 days after sowing; 120 g/10a; evaluated 14 days after treatment
Procedure, shortened: as §2

Echinochloa crus-galli [9] = assay: Test Example 3: herbicidal effect test by soil treatment in upland field; conditions: upland field soil treatment 1 day after sowing; 120 g/10a; evaluated 14 days after treatment
Procedure, shortened: (§3)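 Pre-emergence soil treatment: 20 seeds of each weed were mixed into the top 1 cm of alluvial field soil in 36 cm^2 pots. One day after sowing, a water-diluted emulsifiable concentrate was sprayed on the soil at 100 liter per 10 are (120 g active ingredient per 10 are), with two replications. Suppression (%) was derived from dry weight versus untreated plots after 14 days.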

Amaranthus viridis [10] = assay: as above; conditions: upland field soil treatment 1 day after sowing; 120 g/10a; evaluated 14 days after treatment
Procedure, shortened: as §3

Chenopodium album [11] = assay: as above; conditions: upland field soil treatment 1 day after sowing; 120 g/10a; evaluated 14 days after treatment
Procedure, shortened: as §3

crabgrass [12] = assay: as above; conditions: upland field soil treatment 1 day after sowing; 120 g/10a; evaluated 14 days after treatment
Procedure, shortened: as §3

Monochoria vaginalis [13] = assay: Test Example 2: herbicidal effect test by treatment during growing period in paddy field; conditions: treatment 7 days after sowing, 120 g/10a, evaluated 14 days after treatment
Procedure, shortened: (§4)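 Paddy soil in Wagner pots, flooded to ~3 cm; 30 seeds per species sown 0–1 cm deep, greenhouse-grown. Emulsifiable concentrate diluted in water and dripped into flood water 7 days after sowing at 120 g active ingredient per 10 are. Dry-weight suppression vs untreated assessed 14 days post-treatment, two replicates.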

Echinochloa crus-galli [14] = assay: as above; conditions: treatment 7 days after sowing, 120 g/10a, evaluated 14 days after treatment
Procedure, shortened: as §4

Lindernia pyxidaria [15] = assay: as above; conditions: treatment 7 days after sowing, 120 g/10a, evaluated 14 days after treatment
Procedure, shortened: as §4

Scirpus juncoides [16] = assay: as above; conditions: treatment 7 days after sowing, 120 g/10a, evaluated 14 days after treatment
Procedure, shortened: as §4

Row | Compound | weed suppression rate, Monochoria vaginalis (Monochoria vaginalis [1]) | weed suppression rate, Echinochloa crus-galli (Echinochloa crus-galli [2]) | weed suppression rate, Lindemia pyxidaria (Lindernia pyxidaria [3]) | weed suppression rate, Scirpus juncoides (Scirpus juncoides [4]) | herbicidal effect (weed suppression rate), Echinochloa crus-galli (Echinochloa crus-galli [5]) | herbicidal effect (weed suppression rate), Amaranthus viridis (Amaranthus viridis [6]) | herbicidal effect (weed suppression rate), Chenopodium album (Chenopodium album [7]) | herbicidal effect (weed suppression rate), Crabgrass (crabgrass [8]) | herbicidal effect (weed suppression rate), Echinochloa crus-galli (Echinochloa crus-galli [9]) | herbicidal effect (weed suppression rate), Amaranthus viridis (Amaranthus viridis [10]) | herbicidal effect (weed suppression rate), Chenopodium album (Chenopodium album [11]) | herbicidal effect (weed suppression rate), Crabgrass (crabgrass [12]) | weed suppression rate, Monochoria vaginalis (Monochoria vaginalis [13]) | weed suppression rate, Echinochloa crus-galli (Echinochloa crus-galli [14]) | weed suppression rate, Lindemia pyxidaria (Lindernia pyxidaria [15]) | weed suppression rate, Scirpus juncoides (Scirpus juncoides [16])
1 | CC(C)N(C(=O)n1ncn(S(=O)(=O)C2CCCC2)c1=O)c1ccc(F)cc1F [Compound 1-284] | 100% | 100% | 100% | 100% | 80% | 90% | 80% | 90% | 90% | 60% | 90% | 90% | 90% | 90% | 90% | 90%
2 | CC(C)N(C(=O)n1ncn(S(=O)(=O)C2CCCCC2)c1=O)c1ccccc1 [Compound 1-295] | 80% | 90% | 80% | 90% | 80% | 90% | 80% | 90% | 80% | 90% | 80% | 90% | 80% | 90% | 80% | 90%
3 | CC(C)N(C(=O)n1ncn(S(=O)(=O)C2CCCCC2)c1=O)c1ccc(F)cc1 [Compound 1-298] | 80% | 90% | 90% | 90% | 80% | 90% | 80% | 90% | 80% | 90% | 80% | 90% | 90% | 90% | 90% | 90%
4 | CC(C)N(C(=O)n1ncn(S(=O)(=O)C2CCCCC2)c1=O)c1cccc(F)c1F [Compound 1-305] | 100% | 100% | 100% | 100% | 90% | 80% | 80% | 100% | 100% | 80% | 80% | 100% | 100% | 100% | 100% | 100%
5 | CC(C)N(C(=O)n1ncn(S(=O)(=O)C2CCCCC2)c1=O)c1c(F)cccc1F [Compound 1-308] | 80% | 100% | 100% | 100% | 90% | 60% | 40% | 90% | 90% | 40% | 40% | 90% | 100% | 100% | 90% | 100%
6 | CC(C)N(C(=O)n1ncn(S(=O)(=O)C2CCCCC2)c1=O)c1ccc(F)cc1Cl [Compound 1-313] | 80% | 90% | 80% | 90% | 80% | 90% | 80% | 90% | 80% | 90% | 80% | 90% | 80% | 90% | 80% | 90%
7 | CC(C)N(C(=O)n1ncn(S(=O)(=O)C2CCCCC2)c1=O)c1ccc(Cl)cc1Br [Compound 1-318] | 90% | 100% | 90% | 100% | 80% | 60% | 60% | 80% | 100% | 50% | 50% | 100% | 80% | 100% | 80% | 80%
